The target of one assay is T1, METTL16 (1-291) (Homo sapiens, UniProt Q86W50).
T1 construct: METTL16 MTD (1–291) was subcloned to pOPINB plasmid; His tag followed by HRV 3C cleavage site (N, cleaved yes); made in house; host or cells: E. coli Rosetta (DE3)
T1 sequence (Q86W50 1-291): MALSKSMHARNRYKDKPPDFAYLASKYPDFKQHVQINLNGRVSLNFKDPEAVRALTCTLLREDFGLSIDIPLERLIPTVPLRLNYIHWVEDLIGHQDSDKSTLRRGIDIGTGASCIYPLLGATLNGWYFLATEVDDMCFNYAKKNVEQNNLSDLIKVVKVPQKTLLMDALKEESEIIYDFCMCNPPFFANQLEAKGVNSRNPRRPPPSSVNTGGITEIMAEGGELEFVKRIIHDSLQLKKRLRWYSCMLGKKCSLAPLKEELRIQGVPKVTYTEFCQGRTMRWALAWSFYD
In words: Covalent binding evaluation by protein LC–MS. Particulars: 30 μM METTL16 (1-291), 100 μM compound, 30 or 150 min. The method, then: To evaluate whether the aminothiazolones covalently bind to METTL16, we performed the LC–MS analysis after incubating the protein with aminothiazolones for 30 and 150 min, respectively. In the case of covalent binding, we would expect to observe the formation of covalent adducts, which would accrue over time. […] Besides the LC–MS analysis result, an irreversible inhibition counter screening indicated the reversible inhibitory activity of the aminothiazolones (Figure S8A).
Figure S7. Covalent evaluation of METTL16 inhibitors via LC-MS. (A) Deconvoluted mass spectrum of 30 µM METTL16 (1-291) incubated with 1% DMSO for 30 min (left) and 150 min (right). (B), (C), (D) Deconvoluted […]
(right). Expected Mass for METTL16 (1-291), 33455.7 Da. The observed small mass shift of ~50 Da appeared in both the DMSO control and compound-treated samples was probably formed by the solvent used in the LC-MS.
(1 picture or pasted object on this page, not shown here)
For computational docking analysis of aminothiazolones to the RNA binding site of METTL16 (PDB code: 6B91)2 Schrödinger® Maestro 12.3 was used. […]
Chemical states were generated with the ligand preparation module and METTL16 conformation with the protein preparation module. […] The glide dock module was used and the results were evaluated according to interactions between small molecules and METTL16, small molecule orientations, docking scores and solvent exposure patterns. […]
METTL16 MTD protein was diluted in SEC buffer (20mM pH 7.5, 200 mM NaCl, 0.5 mM TCEP,5% v/v glycerol) to a final concentration of 30 µM, and incubated with DMSO or 100 μM compound (final 1% DMSO) at room temperature. After incubation (30 min or 150 min), the samples were analyzed on an Agilent 1260 II Infinity system equipped with an electrospray ion source in positive mode, run through a Desalting cartridge (AdvanceBio Desalting-RP, 2.1 mm, 12.5mm, Agilent) with a gradient of 5-80% HPLC-grade acetonitrile (+ 0.1% TFA) in HPLC-grade water (+ 0.1% TFA) (flowrate: 0.4 mL/min, runtime: 6 min). […]

Assay [1] deals with MAT2A mRNA splicing in A549 cells. Put plainly: MAT2A splicing by RT-qPCR, A549. The format is cell-based, human. Particulars: 50 μM, 24 h, 45 potassium salt used. The method, then: (§1) MDA-MB-231 cells and A549 cells were seeded into 6-well plates at 70% confluency and cultured overnight. Afterward they were treated with compound 45 potassium salt for 24 h. After the compound treatment, the cell culture medium was discarded and cells were washed with DPBS three times. The total RNA was then purified using RNeasy Mini Kit (Qiagen 74106) following the manufacturer’s protocol.
The reverse transcription was performed by using High-Capacity cDNA Reverse Transcription Kits (Thermo Fisher 4368814) with 500 ng of total RNA. qPCR was performed using PowerUp SYBR Green Master Mix (Thermo Fisher, A25742) with a 10 μL volume. The cycling was performed using Bio-Rad CFX96 Real-Time PCR Detection System following the standard cycling mode (primer Tm ≥ 60 °C) on the manufacturer’s protocol. The p value was calculated using GraphPad Prism software’s one-way ANOVA analysis.
Figure S10. Cellular evaluation of selected METTL16 inhibitors. (A)Suppression on cell viability in A549 cells.
Data are shown as mean ± SEM, n=3. (B) Suppression on cell viability in HCT116 cells. Data are shown as mean ± SEM, n=3. (C) Spliced MAT2A in A549 cells increased after treated 24 h with indicated dose of 45. Data are shown as mean ± SEM, n=4. **P<0.01, ns P>0.05. (D) Total RNA m 6A level in A549 cells after treated 24 h with 45. 45 potassium salt was used for MAT2A splicing and total RNA m 6A level evaluation. […]

Assay [2] concerns total m^6A level in MDA-MB-231 cells. In words: Total RNA m6A level by dot blot, MDA-MB-231. Format: cell-based, human. Particulars: 50 μM, 24 h, 45 potassium salt used. The method, then:
as §1
Concentrations of the total RNA were measured by NanoDrop and each sample was calibrated to the same concentration using RNase-free water. RNA samples were heated at 95 °C for 3 min and immediately chilled on ice to disrupt the secondary structures. The total RNA (1 μg) was dropped onto a positively charged nylon membrane (Invitrogen, AM10102). The membrane with RNA side up was immediately transferred to the UVP Cross-linker (Analytik Jena) with […] bulb and cross-linked under the UV light for 5 min two times, then the membrane was washed in TBST (1xTBS with 0.1% Tween 20) for 10 min at room temperature and blocked with 5% skimmed milk in TBST for 1 h at room temperature. The membrane was incubated with the anti-m^6A antibody (Synaptic systems 202003, 1 μg/mL) overnight at 4 °C. […] The membrane was further washed with TBST and detected with the Amersham ECL Prime Western Blotting Detection Reagent. […]

The target of the next assay is T2, METTL16 MTD (Homo sapiens, UniProt Q86W50).
T2 construct: METTL16 MTD (1–291) was subcloned to pOPINB plasmid; His tag followed by HRV 3C cleavage site (N, cleaved yes); made in house; host or cells: E. coli Rosetta (DE3)
T2 sequence (Q86W50 1-291): T1 sequence (Q86W50 1-291)
Put plainly: Michaelis–Menten kinetics study, in vitro methylation assay at different SAM concentrations. Format: biochemical. The following applies: SAM from 75 µM, two-fold dilution.

In the case of `CN1C(=O)C(=C2SC(NS(=O)(=O)c3ccc(C(=O)O)cc3)=NC2=O)c2cc(Br)ccc21` [Compound 45], at METTL16 (1-291), the “covalent adduct formation with METTL16 (LC–MS)” value is reported as “no such covalent adduct with a mass shift was observed”. The “MAT2A splicing, in words” value in assay [1] is “promoted MAT2A splicing”. The “total m^6A RNA level, in words” value in assay [2] is “increased the total m^6A mRNA levels”.
As for `O=C1N=C(NS(=O)(=O)c2ccc(C(=O)O)cc2)SC1=C1C(=O)Nc2ccc(Br)cc21` [Compound 47], the “covalent adduct formation with METTL16 (LC–MS)” value at METTL16 (1-291) is listed as “no such covalent adduct with a mass shift was observed”. In addition, the “inhibition mode with SAM (Michaelis–Menten kinetics)” value against METTL16 MTD is listed as “noncompetitive inhibition mode with SAM”.
